Experiments:
SREBP-1 [1] = experiment: SREBP-1 proteolysis (maturation) assay, Western immunoblot of nuclear fractions, HH-25 hepatocytes; type: cell-based, human; settings: for increase in mass of the mature form of SREBP-1: sterol supplemented media
Description: FIGS. 2A-2C illustrate effects of TNF-α sphingomyelinase and C2-ceramide on the kinetics of SREBP-1 maturation—FIGS. 2A-2C is explained in more detail as follows: Cells were maintained in media supplemented with 1 μg/ml 25-hydroxy cholesterol and 15 μg/ml cholesterol for 24 hours before the experiment. The cells were treated for the indicated time as described in materials and methods. The cells were then harvested in PBS, pelleted and frozen. Lysis and nuclear fractionation were performed as described. Nuclear fractions (50 μg of protein) were electrophoresed on a 7.5% polyacrylamide gel and transferred to a PVDF membrane. Western blotting was performed as described. Band intensity was quantified via densitometry. Error bars represent ±one standard deviation from the mean. 2A) The kinetics of SREBP maturation as measured by the increase in mature SREBP-1 are plotted. Fold increase was calculated by comparing each time point to the corresponding control value (TNF-α is represented by stippled bars, bacterial sphingomyelinase is represented by light gray bars and C2-ceramide by the dark bars.) 2B) Cells were treated with TNF-α (10 ng/ml) and prepared as described above. The bands corresponding to the precursor and mature forms of SREBP-1 were quantified and their ratio plotted. 2C) Representative Western blots from which numerical data was derived. Incubation time is indicated above and applies to all conditions. The membranes were exposed to film for 15 seconds. P and M denote the precursor and mature forms of SREBP-1 respectively.
FIGS. 3A-3C show effects of TNF-α, sphingomyelinase and C2-ceramide concentration on SREBP-1 maturation—The FIGS. 3A-3C are explained in more detail as follows. […] Nuclear pellets were prepared and electrophoresed (50 μg of protein). The bands corresponding to the precursor and mature forms of SREBP-1 were quantified. The precursor to mature ratios were normalized to a single control to facilitate comparison. The control ratio was arbitrarily assigned a value of 1. A Unit of sphingomyelinase activity hydrolyzes 1.0 μmol of sphingomyelin per minute at 37° C. FIG. 3A (ng/ml TNF-α); FIG. 3B (mUnits of sphingomyelinase); FIG. 3C (micromolar C2-ceramide).
HH-25 cells were grown in alpha-minimal essential media supplemented with 100 units/ml penicillin, 100 µg/ml streptomycin, […], 0.1 μM selenium, 5.5 μg/ml transferrin, 0.5 μg/ml linoleic acid and 10% fetal bovine serum (media A). The cells were incubated in serum free F10 media for 30 to 60 minutes prior to initiating treatment with TNF-α, C2-ceramide or sphingomyelinase.
Following treatment, the cells were washed with 5 ml of PBS and pelleted at 1500×g for 10 minutes at 4° C. The pellet was stored at −70° C. and lysed in 0.5 ml buffer A (10 mM HEPES pH 7.4, 5 mM EDTA, 0.25 mM EGTA, 50 mM NaF, 7 mM β-mercaptoethanol, 0.35M sucrose, 0.1% NP-40 and protease inhibitors 1 mM PMSF, 2 μg/ml aprotinin, 10 μg/ml leupeptin and 5 μg/ml pepstatin). The lysate was centrifuged at 12,000×g for 15 minutes at 4° C. to prepare a nuclear fraction. The protein concentration of these samples was determined by the method of Lowry et al. al. (19).
50 μg of nuclear protein was separated by gel electrophoresis on a 7.5% polyacrylamide gel. Gels were calibrated by high range molecular weight markers (Bio-Rad product #161-0303, New York, N.Y.) which were transferred to a polyvinyl difluoride (PVDF) membrane and visualized with coomassie staining. Rabbit polyclonal antibodies against SREBP-1 were used at 0.5 μg/ml according to the instructions of the manufacturer. The antibody was visualized with horseradish peroxidase conjugated anti-rabbit IgG made in donkey (Amersham) using the Enhanced Chemiluminescence (ECL) Western Blotting Detection System Kit (Amersham). PVDF membranes were exposed to Hyperfilm ECL (Amersham) for the indicated time. Immunoblots were quantified via densitometry performed on a PDI densitometer scanner (model 20J7) coupled to a SPARC IRC workstation.

SREBP-1 [2] = experiment: Electrophoretic mobility shift assay, SREBP-1 binding to SRE probe; type: cell-based, human; settings: for amount of probe bound (electrophoretically retarded) by mature SREBP-1: TNF-α 10 ng/ml, sphingomyelinase 100 mUnits, C2-ceramide 10 μM
Description: FIGS. 6A-6D show electrophoretic mobility shift assays. FIGS. 6A-D are explained in more detail as follows. Cells were maintained in sterol supplemented media. Nuclear pellets were prepared and assayed as described in materials and methods. Probe that has been bound by mature SREBP-1 is indicated as “Bound”. Unbound probe is indicated as “Free”. The kinetics (in minutes) of SREBP-1 binding to the probe in response to treatment with (FIG. 6A). TNF-α (10 ng/ml), (FIG. 6B) sphingomyelinase (100 mUnits) and (FIG. 6C) C2-ceramide ([…]). (FIG. 6D). The cells were treated with either TNF-α (10 ng/ml), sphingomyelinase (100 mUnits) or C2-ceramide (10 μM) for 15 minutes. Supershift assays were then performed with antibodies raised against the DNA binding domain of SREBP-1. The presence or absence of antibody is indicated by (+) and (−) respectively. Pre-immune IgG was used as a control.
Gel mobility shift assays were performed as follows. Each 20 μl reaction mixture contained 8-10 μg of nuclear protein plus a α-[^32P]-labeled 25-base pair oligonucleotide probe containing the SREBP-binding site (14) in binding buffer (10 mM Hepes, pH 7.5, 0.5 mM spermidine, 0.15 mM EDTA, 10 mM dithiothreitol, 0.35 mM sucrose). The reaction mixture was incubated at room temperature for 15 min and loaded directly onto a 6.5% polyacrylamide (49:0.6 acrylamide/bisacrylamide) gel in a buffer of 25 mM Tris borate (pH 8.0), 0.25 mM EDTA. In some experiments, antisera specific for SREBP or preimmune sera were added to reaction mixtures to determine the composition of protein-probe complexes. For these “supershift” assays, extracts were incubated with 1 μl of preimmune sera or an equal volume of anti-SREBP antisera at 4° C. for 30 min prior to addition of α-[^32P]-labeled probe. In all experiments, proteins were separated by electrophoresis at 200 V for 2 h at room temperature. Gels were dried and exposed to Kodak XAR film with intensifying screens. Assays were repeated with nuclear extracts obtained from three unique experiments and evaluated by phosphoimage analysis to ensure reproducibility of results.

Compound: CCCCCCCCCCCCC/C=C/[C@@H](O)[C@H](CO)NC(C)=O [C2-ceramide, N-acetylsphingosine, reference compound]
- Emax (SREBP-1 [1]; Homo sapiens, Hepatocyte, 1 μM of C2-ceramide, read-out: percent of maximal effect on SREBP-1 maturation): 81%
- persistence of the increase in mature SREBP-1 (SREBP-1 [1]; after 60 minutes): persistent elevation
- rate of accumulation of active, nuclear SREBP-1 compared with TNF-α or sphingomyelinase (SREBP-1 [2]): more rapid accumulation
- amount of probe bound (electrophoretically retarded) by mature SREBP-1 (SREBP-1 [2]): increases

Compound: TNF-α
- concentration giving maximal effect on SREBP-1 maturation (SREBP-1 [1]): 10 ng/mL
- dependence of extent of SREBP-1 maturation on concentration (SREBP-1 [1]): did not vary appreciably with concentration
- maximal decrease in the precursor to mature SREBP-1 ratio (SREBP-1 [1]; 45 minutes after TNF-α (10 ng/ml) was added): 1.5 fold
- increase in mass of the mature form of SREBP-1 (SREBP-1 [1]; after 5 minutes of incubation): 2 fold
- increase in mass of the mature form of SREBP-1 (SREBP-1 [1]; after 15 minutes of treatment): 3 fold
- amount of probe bound (electrophoretically retarded) by mature SREBP-1 (SREBP-1 [2]): increases with time
